Data on 1 compound can be found in patent US4603016A, “Cryogenic brine separation of water and isocyanates” (E. I. Du Pont de Nemours and Company, priority 1985, dated 1986).

This data set can be described thus: storage stability of isolated MIC preparations (GC determination of MIC content immediately following collection and after storage for two weeks). To be noted: for % MIC After Storage / % MIC As Isolated: GC; for % MIC After Storage: after storage for two weeks; for % MIC As Isolated: immediately following collection. In kind it is physicochemical. How it is done:
This example illustrates the stability of MIC preparations isolated by the process of the present invention. The procedure described in Example 1 was substantially repeated at MMF liquid feed rates of 2 mL/min. As described in Example 3, samples of the product of the brine condenser were collected for one hour periods, weighed, and yields estimated. Each sample was then analyzed by GC to determine MIC content immediately following collection, and again after storage for two weeks.

For the compound `CN=C=O` [MIC, methyl isocyanate], the “% MIC After Storage” value was 92.3% (1st hr sample); 92.3% (2nd hr sample); 93.1% (3rd hr sample); 95.0% (4th hr sample); 95.4% (5th hr sample). In addition, the “% MIC As Isolated” value was above 98% (1st hr sample); above 98% (2nd hr sample); above 98% (3rd hr sample); above 98% (4th hr sample); above 98% (5th hr sample). Also, where the note is “storage for two weeks, all samples”, the “degradation of product MIC during storage” value is listed as “minimal degradation”.
